From PubChem BioAssay AID1963435 (Molecular Pharmacology Branch, DTP, NCI, 2024)

Tested on: PANC-1 complex spheroid growth, percent test/control
Assay: Anticancer human tumor PANC-1 cell line growth inhibition [Asc];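 also: spheroids exposed to agents for 7 days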;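 as to viability, T/C: percent viability relative to DMSO vehicle wells taken as 100%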
Conditions: for IC50: curve of first compound; for viability, T/C: stronger effect = lower value
Outline: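 Complex spheroids combining tumor cells with HUVEC endothelial cells and human MSCs, at 37 degrees C, 5% CO2; agents tested alone or combined, half-log dilutions from at or near clinical Cmax, or 10 microM if Cmax unknown.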

[1] = second compound 0.00316 µM, first compound 0.00316 µM
[2] = second compound 0.00316 µM, first compound 0.01 µM
[3] = second compound 0.00316 µM, first compound 0.0316 µM
[4] = second compound 0.00316 µM, first compound 0.1 µM
[5] = second compound 0.01 µM, first compound 0.00316 µM
[6] = second compound 0.01 µM, first compound 0.01 µM
[7] = second compound 0.01 µM, first compound 0.0316 µM
[8] = second compound 0.01 µM, first compound 0.1 µM
[9] = second compound 0.0316 µM, first compound 0.00316 µM
[10] = second compound 0.0316 µM, first compound 0.01 µM
[11] = second compound 0.0316 µM, first compound 0.0316 µM
[12] = second compound 0.0316 µM, first compound 0.1 µM
[13] = second compound 0.1 µM, first compound 0.00316 µM
[14] = second compound 0.1 µM, first compound 0.01 µM
[15] = second compound 0.1 µM, first compound 0.0316 µM
[16] = second compound 0.1 µM, first compound 0.1 µM
[17] = second compound 0.316 µM, first compound 0.00316 µM
[18] = second compound 0.316 µM, first compound 0.01 µM
[19] = second compound 0.316 µM, first compound 0.0316 µM
[20] = second compound 0.316 µM, first compound 0.1 µM
[21] = second compound 1 µM, first compound 0.00316 µM
[22] = second compound 1 µM, first compound 0.01 µM
[23] = second compound 1 µM, first compound 0.0316 µM
[24] = second compound 1 µM, first compound 0.1 µM

Molecule COc1c(OCCCN2CCOCC2)ccc2c3n(c(=NC(=O)c4cnc(N)nc4)nc12)CCN3 + CNC(C)C(=O)NC1CN(S(=O)(=O)c2cccc(S(=O)(=O)N3CCC4CCC(C(=O)NC(c5ccccc5)c5ccccc5)N4C(=O)C(NC(=O)C(C)NC)C3)c2)CCC2CCC(C(=O)NC(c3ccccc3)c3ccccc3)N2C1=O has an IC50 (second compound 0.00316 µM) of 289 nM, an IC50 (second compound 0.01 µM) of 225 nM and an IC50 (second compound 0.0316 µM) of 199 nM. The IC50 (second compound 0.1 µM) was 157 nM, the IC50 (second compound 0.316 µM) was 159 nM and the IC50 (second compound 1 µM) was 191 nM. The viability, T/C [1] was 107%, the viability, T/C [2] was 92.4% and the viability, T/C [3] was 87.6%. For the same molecule, the viability, T/C [4] was 74.8%, the viability, T/C (second compound 0.00316 µM, first compound 0.316 µM) was 45.6% and the viability, T/C (second compound 0.00316 µM, first compound 1 µM) was 18.7%. The viability, T/C [5] was 96.1%, the viability, T/C [6] was 95.5% and the viability, T/C [7] was 94.2%. It also gave a viability, T/C [8] of 65.7%, a viability, T/C (second compound 0.01 µM, first compound 0.316 µM) of 44% and a viability, T/C (second compound 0.01 µM, first compound 1 µM) of 15.6%. It also gave a viability, T/C [9] of 95.2%, a viability, T/C [10] of 99.1% and a viability, T/C [11] of 89.9%. It also gave a viability, T/C [12] of 62.8%, a viability, T/C (second compound 0.0316 µM, first compound 0.316 µM) of 41.3% and a viability, T/C (second compound 0.0316 µM, first compound 1 µM) of 13.2%. It also gave a viability, T/C [13] of 103%, a viability, T/C [14] of 90.7% and a viability, T/C [15] of 82.1%. For the same molecule, the viability, T/C [16] was 56.6%, the viability, T/C (second compound 0.1 µM, first compound 0.316 µM) was 36.8% and the viability, T/C (second compound 0.1 µM, first compound 1 µM) was 12.3%. It also gave a viability, T/C [17] of 98.7%, a viability, T/C [18] of 91.7% and a viability, T/C [19] of 85.2%. The viability, T/C [20] was 56.9%, the viability, T/C (second compound 0.316 µM, first compound 0.316 µM) was 36.8% and the viability, T/C (second compound 0.316 µM, first compound 1 µM) was 14.6%. It also gave a viability, T/C [21] of 86.9%, a viability, T/C [22] of 96.9% and a viability, T/C [23] of 83.1%. The viability, T/C [24] was 66.4%, the viability, T/C (second compound 1 µM, first compound 0.316 µM) was 37.4% and the viability, T/C (second compound 1 µM, first compound 1 µM) was 15.5%.
With NC(=O)C(=Cn1cnc(-c2cc(C(F)(F)F)cc(C(F)(F)F)c2)n1)c1cncnc1 + CNC(C)C(=O)NC1CN(S(=O)(=O)c2cccc(S(=O)(=O)N3CCC4CCC(C(=O)NC(c5ccccc5)c5ccccc5)N4C(=O)C(NC(=O)C(C)NC)C3)c2)CCC2CCC(C(=O)NC(c3ccccc3)c3ccccc3)N2C1=O the IC50 (second compound 0.00316 µM) was greater than 300 nM, the IC50 (second compound 0.01 µM) was greater than 300 nM and the IC50 (second compound 0.0316 µM) was greater than 300 nM. It also gave an IC50 (second compound 0.1 µM) greater than 300 nM, an IC50 (second compound 0.316 µM) greater than 300 nM and an IC50 (second compound 1 µM) greater than 300 nM. For the same molecule, the viability, T/C (second compound 0.00316 µM, first compound 0.000949 µM) was 103%, the viability, T/C (second compound 0.00316 µM, first compound 0.003 µM) was 80.5% and the viability, T/C (second compound 0.00316 µM, first compound 0.00949 µM) was 90.2%. For the same molecule, the viability, T/C (second compound 0.00316 µM, first compound 0.03 µM) was 91.6%, the viability, T/C (second compound 0.00316 µM, first compound 0.0949 µM) was 102% and the viability, T/C (second compound 0.00316 µM, first compound 0.3 µM) was 95.3%. For the same molecule, the viability, T/C (second compound 0.01 µM, first compound 0.000949 µM) was 87%, the viability, T/C (second compound 0.01 µM, first compound 0.003 µM) was 89.9% and the viability, T/C (second compound 0.01 µM, first compound 0.00949 µM) was 89.3%. For the same molecule, the viability, T/C (second compound 0.01 µM, first compound 0.03 µM) was 87.6%, the viability, T/C (second compound 0.01 µM, first compound 0.0949 µM) was 95.3% and the viability, T/C (second compound 0.01 µM, first compound 0.3 µM) was 85.2%. For the same molecule, the viability, T/C (second compound 0.0316 µM, first compound 0.000949 µM) was 82%, the viability, T/C (second compound 0.0316 µM, first compound 0.003 µM) was 91.4% and the viability, T/C (second compound 0.0316 µM, first compound 0.00949 µM) was 83.3%. The viability, T/C (second compound 0.0316 µM, first compound 0.03 µM) was 81%, the viability, T/C (second compound 0.0316 µM, first compound 0.0949 µM) was 90.5% and the viability, T/C (second compound 0.0316 µM, first compound 0.3 µM) was 78.3%. It also gave a viability, T/C (second compound 0.1 µM, first compound 0.000949 µM) of 84%, a viability, T/C (second compound 0.1 µM, first compound 0.003 µM) of 83.1% and a viability, T/C (second compound 0.1 µM, first compound 0.00949 µM) of 79.9%. It also gave a viability, T/C (second compound 0.1 µM, first compound 0.03 µM) of 91.3%, a viability, T/C (second compound 0.1 µM, first compound 0.0949 µM) of 102% and a viability, T/C (second compound 0.1 µM, first compound 0.3 µM) of 80.5%. It also gave a viability, T/C (second compound 0.316 µM, first compound 0.000949 µM) of 89.2%, a viability, T/C (second compound 0.316 µM, first compound 0.003 µM) of 78% and a viability, T/C (second compound 0.316 µM, first compound 0.00949 µM) of 79.2%. For the same molecule, the viability, T/C (second compound 0.316 µM, first compound 0.03 µM) was 81.5%, the viability, T/C (second compound 0.316 µM, first compound 0.0949 µM) was 103% and the viability, T/C (second compound 0.316 µM, first compound 0.3 µM) was 71.9%. For the same molecule, the viability, T/C (second compound 1 µM, first compound 0.000949 µM) was 78.3%, the viability, T/C (second compound 1 µM, first compound 0.003 µM) was 90.7% and the viability, T/C (second compound 1 µM, first compound 0.00949 µM) was 79.7%. It also gave a viability, T/C (second compound 1 µM, first compound 0.03 µM) of 85.3%, a viability, T/C (second compound 1 µM, first compound 0.0949 µM) of 88.8% and a viability, T/C (second compound 1 µM, first compound 0.3 µM) of 66.7%.
NC1CCC(NC2CC2c2ccccc2)CC1 (stereo unspecified) + CNC(C)C(=O)NC1CN(S(=O)(=O)c2cccc(S(=O)(=O)N3CCC4CCC(C(=O)NC(c5ccccc5)c5ccccc5)N4C(=O)C(NC(=O)C(C)NC)C3)c2)CCC2CCC(C(=O)NC(c3ccccc3)c3ccccc3)N2C1=O gave an IC50 (second compound 0.00316 µM) greater than 100 nM, an IC50 (second compound 0.01 µM) greater than 100 nM and an IC50 (second compound 0.0316 µM) greater than 100 nM. The IC50 (second compound 0.1 µM) was greater than 100 nM, the IC50 (second compound 0.316 µM) was greater than 100 nM and the IC50 (second compound 1 µM) was greater than 100 nM. For the same molecule, the viability, T/C (second compound 0.00316 µM, first compound 0.000316 µM) was 99.3%, the viability, T/C (second compound 0.00316 µM, first compound 0.001 µM) was 94% and the viability, T/C [1] was 90%. For the same molecule, the viability, T/C [2] was 87.5%, the viability, T/C [3] was 99.4% and the viability, T/C [4] was 87.8%. For the same molecule, the viability, T/C (second compound 0.01 µM, first compound 0.000316 µM) was 95%, the viability, T/C (second compound 0.01 µM, first compound 0.001 µM) was 95.9% and the viability, T/C [5] was 88.5%. For the same molecule, the viability, T/C [6] was 85%, the viability, T/C [7] was 93.5% and the viability, T/C [8] was 94.4%. For the same molecule, the viability, T/C (second compound 0.0316 µM, first compound 0.000316 µM) was 95%, the viability, T/C (second compound 0.0316 µM, first compound 0.001 µM) was 96.8% and the viability, T/C [9] was 85.7%. For the same molecule, the viability, T/C [10] was 86.5%, the viability, T/C [11] was 84.5% and the viability, T/C [12] was 93.4%. It also gave a viability, T/C (second compound 0.1 µM, first compound 0.000316 µM) of 98.9%, a viability, T/C (second compound 0.1 µM, first compound 0.001 µM) of 102% and a viability, T/C [13] of 96.5%. It also gave a viability, T/C [14] of 93%, a viability, T/C [15] of 92.8% and a viability, T/C [16] of 87.8%. It also gave a viability, T/C (second compound 0.316 µM, first compound 0.000316 µM) of 102%, a viability, T/C (second compound 0.316 µM, first compound 0.001 µM) of 97.9% and a viability, T/C [17] of 108%. The viability, T/C [18] was 84.9%, the viability, T/C [19] was 97.8% and the viability, T/C [20] was 93.5%. For the same molecule, the viability, T/C (second compound 1 µM, first compound 0.000316 µM) was 94.6%, the viability, T/C (second compound 1 µM, first compound 0.001 µM) was 76.7% and the viability, T/C [21] was 99.3%. The viability, T/C [22] was 85.9%, the viability, T/C [23] was 90.7% and the viability, T/C [24] was 92.3%.
